Results published in patent US12492193B2, “Pyrazole derivatives for the treatment of cystic fibrosis” (Fondazione Istituto Italiano Di Tecnologia, priority 2017, dated 2025).

Experiments:
Assay type in all cases: cell-based
F508del-CFTR [1] = target: T1, F508del-CFTR (Homo sapiens, UniProt P13569, DEL508-508); test: Short-circuit current recordings on human bronchial epithelial cells (F508del/F508del); set-up: Human bronchial epithelial (HBE) cells obtained from CF patients (F508del/F508del genotype); endogenous in cells; host or cells: primary human bronchial epithelial cells from CF patients, F508del/F508del; details: HBE cells from CF patients (F508del/F508del), 24 hrs treatment; table 3
Method: Short-Circuit Current Recordings on Human Bronchial Epithelial Cells
Human bronchial epithelial (HBE) cells obtained from CF patients (F508del/F508del genotype) were plated on Snapwell inserts (Code 3801, Corning Life Sciences) at a density of 500,000 cells per insert. Cells were cultured for two weeks in a differentiating medium whose compositions has been previously described (Scudieri et al., J Physiol 590:6141-6155, 2012). For the first week, the medium was kept on both apical and basolateral sides of inserts (submerged condition). For the second week, the apical medium was removed (air-liquid condition, ALC). To test the activity of correctors, cells were treated for 24 hrs with compounds dissolved in the basolateral medium. After treatment, Snapwell inserts carrying differentiated bronchial epithelia were mounted in a vertical chamber resembling an Ussing system with internal fluid circulation. Both apical and basolateral hemichambers were filled with 5 mL of a Krebs bicarbonate solution containing (in mM): 126 NaCl, 0.38 KH2PO4, 2.13 K2HPO4, 1 MgSO4, 1 CaCl2), 24 NaHCO3, and 10 glucose. Both sides were continuously bubbled with a gas mixture containing 5% CO2-95% air and the temperature of the solution was kept at 37° C. The transepithelial voltage was short-circuited with a voltage-clamp (DVC-1000, World Precision Instruments) connected to the apical and basolateral chambers via Ag/AgCl electrodes and agar bridges (1 M KCl in 1% agar). The offset between voltage electrodes and the fluid resistance were canceled before experiments. The short-circuit current was recorded with a PowerLab 4/25 (ADInstruments) analogical to digital converter connected to a Macintosh computer. […] The difference between the current measured with CPT-cAMP plus potentiator and the current remaining after CFTRinh-172 treatment (ΔICFTR) was taken as the parameter reflecting F508del-CFTR expression in the apical membrane.
Activities of selected compounds on HBE cells (expressed as ΔICFTR) are illustrated in table 3 wherein +: ΔICFTR<2.0 μA; ++: 2.0 μA<ΔICFTR<3.0 μA; +++: ΔICFTR>3.0 μA.

F508del-CFTR [2] = target: T1, F508del-CFTR; test: Transepithelial electrical conductance (TEEC) in FRT cells expressing F508del-CFTR; set-up: expressed in transfected cells; host or cells: FRT cells; details: compounds tested at 5.0 μM, 24 hrs, table 2
Method: Transepithelial Electrical Conductance (TEEC)
FRT cells expressing F508del-CFTR were plated on HTS Transwell-24 well permeable supports (Code 3379, Corning Life Sciences) at a density of 200,000 cells/well. After six days, cells were incubated for 24 hrs with test correctors, vehicle, or VX-809. Compounds were dissolved in both basolateral (800 μL) and apical (300 μL) culture medium. After treatment, the culture medium was removed and replaced on both sides with a saline solution containing (in mM): 130 NaCl, 2.7 KCl, 1.5 KH2PO4, 1 CaCl2), 0.5 MgCl2, 10 glucose, 10 Na-Hepes (pH 7.4). The basolateral and apical side received 800 μL and […], respectively. The 24-well tray with cells was placed on a block heater (SBH 130D, Stuart) to keep the temperature at 37° C. during the entire experiment. After 10 min, the basal transepithelial electrical resistance (TEER) across each layer of FRT cells was measured with a STX100C electrode pair connected to an EVOM2 voltohmeter (World Precision Instruments). To stimulate F508del-CFTR, each well received (apical side) 50 μL of saline solution containing 60 μM forskolin and 150 μM genistein (final concentrations: 20 μM forskolin, 50 μM genistein). Forskolin was also pipetted in the basolateral medium to obtain the 20 μM concentration. After 10 min TEER was measured again in each well. To block F508del-CFTR function, the inhibitor PPQ-102 was used at the final concentration of 30 μM. To achieve the desired concentration, 75 μL of the apical solution in each well was replaced with an equal volume of saline solution containing 20 μM forskolin, 50 μM genistein, and 60 μM PPQ-102. After further 10 min, the transepithelial electrical resistance was measured. All values of TEER were converted to transepithelial electrical conductance (TEEC) using the formula TEEC=1/TEER. The parameter to indicate activity of F508del-CFTR in each well (ATEEC) was calculated from the difference in TEEC measured after maximal stimulation of F508del-CFTR with forskolin and genistein and after block with PPQ-102.
Corrector activities obtained on selected compounds tested at 5.0 μM (expressed as ΔTEEC values) are illustrated in table 2, wherein +: ΔTEEC<2000 μS; ++: 2000 μS<ΔTEEC<3000 μS; […]: ΔTEEC>3000 μS.

mutant CFTR = target: T2, mutant CFTR (Homo sapiens, UniProt P13569, DEL508-508); test: Fluorescence (HS-YFP) assay for CFTR activity, corrector assay; details: CFBE41o- and FRT cells with stable expression of mutant CFTR, 24 h compound treatment
T2 construct: expressed in transfected cells
Method in brief: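 CFBE41o- or FRT cells stably expressing mutant CFTR and HS-YFP were exposed to compounds for 24 h (corrector mode), then stimulated 30 min at 37° C with forskolin (20 μM) plus genistein (50 μM). YFP quenching after 100 mM iodide injection; initial slope from exponential fit of final 10 s; EC50 reported.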

T2 sequence (P13569 with tags, fused parts or gaps DEL508-508): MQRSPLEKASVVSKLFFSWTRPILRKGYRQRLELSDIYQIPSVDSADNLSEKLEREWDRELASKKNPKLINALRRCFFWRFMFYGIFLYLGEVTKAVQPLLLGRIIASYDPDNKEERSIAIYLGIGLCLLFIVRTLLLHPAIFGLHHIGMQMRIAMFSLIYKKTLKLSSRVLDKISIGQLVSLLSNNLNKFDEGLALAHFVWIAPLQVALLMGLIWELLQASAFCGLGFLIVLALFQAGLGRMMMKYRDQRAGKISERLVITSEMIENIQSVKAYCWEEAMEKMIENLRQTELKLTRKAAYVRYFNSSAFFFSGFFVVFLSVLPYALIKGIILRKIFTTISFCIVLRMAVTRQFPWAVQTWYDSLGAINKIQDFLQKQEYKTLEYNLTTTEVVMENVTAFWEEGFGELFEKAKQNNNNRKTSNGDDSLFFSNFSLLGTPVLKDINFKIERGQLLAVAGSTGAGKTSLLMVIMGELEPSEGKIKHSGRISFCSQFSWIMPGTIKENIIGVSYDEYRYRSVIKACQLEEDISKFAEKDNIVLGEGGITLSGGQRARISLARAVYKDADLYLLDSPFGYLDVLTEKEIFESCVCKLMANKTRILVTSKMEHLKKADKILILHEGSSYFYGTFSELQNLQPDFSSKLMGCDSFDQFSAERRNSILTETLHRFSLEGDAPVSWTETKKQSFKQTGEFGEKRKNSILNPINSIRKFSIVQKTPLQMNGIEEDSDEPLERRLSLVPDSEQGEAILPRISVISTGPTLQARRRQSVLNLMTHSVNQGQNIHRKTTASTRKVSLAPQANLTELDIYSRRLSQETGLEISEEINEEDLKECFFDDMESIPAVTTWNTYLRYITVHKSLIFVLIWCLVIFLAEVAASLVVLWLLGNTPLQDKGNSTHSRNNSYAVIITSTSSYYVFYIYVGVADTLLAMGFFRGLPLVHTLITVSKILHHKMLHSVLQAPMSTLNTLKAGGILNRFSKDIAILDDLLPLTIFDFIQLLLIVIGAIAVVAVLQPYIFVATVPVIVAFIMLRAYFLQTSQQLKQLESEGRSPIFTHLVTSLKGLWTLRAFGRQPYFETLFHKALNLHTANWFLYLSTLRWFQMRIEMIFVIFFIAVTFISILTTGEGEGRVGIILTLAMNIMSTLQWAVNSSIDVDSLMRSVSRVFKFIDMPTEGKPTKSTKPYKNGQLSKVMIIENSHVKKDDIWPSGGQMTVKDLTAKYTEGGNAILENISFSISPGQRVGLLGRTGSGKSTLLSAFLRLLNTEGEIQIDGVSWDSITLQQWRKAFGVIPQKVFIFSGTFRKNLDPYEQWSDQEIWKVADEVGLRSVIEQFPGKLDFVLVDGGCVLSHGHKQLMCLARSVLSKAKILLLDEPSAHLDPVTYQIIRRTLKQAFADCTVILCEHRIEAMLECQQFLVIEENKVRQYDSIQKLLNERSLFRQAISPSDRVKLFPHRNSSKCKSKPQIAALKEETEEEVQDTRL
T1 sequence (P13569 with tags, fused parts or gaps DEL508-508): as above

Row | Compound | activity on HBE cells (ΔICFTR) (F508del-CFTR [1]) | Corrector activity (ΔTEEC) (F508del-CFTR [2]) | EC50 (mutant CFTR) [nM]
1 | Cc1nc2ccc(N(C)C(=O)c3cccc(-n4nc(C(F)(F)F)c(Cl)c4C)c3)cc2o1 [compound 108, 3-[4-Chloro-5-methyl-3-(trifluoromethyl)pyrazol-1-yl]-N-methyl-N-(2-methyl-1,3-benzoxazol-6-yl)benzamide] | + (ΔICFTR<2.0 μA) | ++ (2000 μS<ΔTEEC<3000 μS) | < 1000
2 | Cc1c(Cl)c(C(F)(F)F)nn1-c1cccc(C(=O)N(C)c2ccc3c(c2)OCO3)c1 [compound 090, N-(1,3-Benzodioxol-5-yl)-3-[4-chloro-5-methyl-3-(trifluoromethyl)pyrazol-1-yl]-N-methyl-benzamide] | +++ (ΔICFTR>3.0 μA) | ++ (2000 μS<ΔTEEC<3000 μS) | < 1000
3 | CCOC(=O)c1ccc(OCc2c(Cl)c(C)nn2-c2cccc(C(=O)N(C)c3ccc4c(c3)OCO4)c2)cc1 [compound 141, Ethyl 4-[[2-[3-[1,3-benzodioxol-5-yl(methyl)carbamoyl]phenyl]-4-chloro-5-methyl-pyrazol-3-yl]methoxy]benzoate] | +++ (ΔICFTR>3.0 μA) | ++ (2000 μS<ΔTEEC<3000 μS) | < 1000
4 | CC(C)Cc1cc(C(F)(F)F)nn1-c1cccc(C(=O)N(C)c2ccc3c(c2)OCO3)c1 [compound 100, N-(1,3-Benzodioxol-5-yl)-3-[5-isobutyl-3-(trifluoromethyl)pyrazol-1-yl]-N-methyl-benzamide] | + (ΔICFTR<2.0 μA) | + (ΔTEEC<2000 μS) | < 1000
5 | Cc1nn(-c2cccc(C(=O)N(C)c3ccc4c(c3)OCO4)c2)c(C(=O)OC(C)(C)C)c1Cl [compound 089, Tert-butyl 2-[3-[1,3-benzodioxol-5-yl(methyl)carbamoyl]phenyl]-4-chloro-5-methyl-pyrazole-3-carboxylate] | +++ (ΔICFTR>3.0 μA) | + (ΔTEEC<2000 μS) | < 1000
